Experimental findings from patent publication US10369186B2, “Method of treating decline in brain function comprising coadministration of citrulline and glutathione” (KYOWA HAKKO BIO CO., LTD., priority 2012, dated 2019) are described below.

Assay [1] relates to C57BL/6J mice. Put plainly: Y-maze test (spontaneous alternation behavior) after bilateral common carotid arteries occlusion. In kind it is in vivo. As to conditions: oral, 7 days, FIG. 1. The protocol:
(§1) Experimental Example: 10-week-old male C57BL/6J mice (CLEA Japan, Inc. approximately 25 g of average body weight per mouse) were preliminarily acclimated for 1 week, and provided for experiments. Citrulline and glutathione were obtained from KYOWA HAKKO BIO CO., LTD.
(§2) C57BL/6J mice were divided into a sham-operation group (Group 1) and a bilateral common carotid arteries occlusion group, which was performed under halothane anesthesia for 20 minutes. One day after reperfusion, the bilateral common carotid arteries occlusion group was further divided into a distilled water-treated group (Group 2), a low-dose citrulline-treated group (40 mg/kg: Group 3), a low-dose glutathione-treated group (40 mg/kg: Group 4), a high-dose citrulline-treated group (100 mg/kg: Group 5), a high-dose glutathione-treated group (100 mg/kg: Group 6), and a combination treatment group of a low dose of citrulline and a low dose of glutathione (each 40 mg/kg: Group 7). Each sample was orally administered for 12 days. One week after starting administration, learning memory-improving effects were examined by a Y-maze test, a passive avoidance test, and a novel object recognition test. After evaluating learning memory functions, the hippocampus was removed and viability of hippocampal nerve cells was evaluated.
In the Y-maze test, a Y-maze apparatus with three arms (50×16×32 cm) was used. Mice were placed at any one arm of the Y-maze and were allowed to explore freely through the maze for 8 minutes. The sequence of arm entries was recorded. The number of entries into each arm was counted during the measurement time, which was defined as the total number of entries. Of them, the successive entry into the three different arms was examined, and this number was defined as the spontaneous alternation behavior number. The spontaneous alternation behavior number was divided by (the total number of arm entries minus two), and then multiplied by 100, which was defined as the spontaneous alternation behavior rate (Alternation) and used as an index for spontaneous alternation behavior.

In assay [2] the test system is C57BL/6J mice. Kind of assay: Passive avoidance test after bilateral common carotid arteries occlusion. In kind it is in vivo. As to conditions: oral, 7 days, FIG. 2. The protocol:
as §1, §2
The passive avoidance test was performed using a box consisting of dark (25×25×25 cm) and light compartments (14×10×25 cm) and being equipped with an electrical stimulation apparatus at the bottom of the dark compartment. During training, as soon as the mouse entered the dark compartment from the light compartment, the door was closed, and an electrical stimulation (0.3 mA, for 2 seconds) was delivered. Twenty four hours after training, the mouse was placed again in the light compartment, and the latency time spent in the light compartment was recorded with a maximum latency of 300 seconds.

Assay [3] concerns C57BL/6J mice. Put plainly: Novel object recognition test after bilateral common carotid arteries occlusion. Type of assay: in vivo. The conditions noted are these: oral, 7 days, FIG. 3. The protocol:
as §1, §2
The novel object recognition test was performed after mice were individually acclimated to the open field apparatus (35×25×35 cm) for 2 days. During training, mice were allowed to explore freely for 10 minutes in an apparatus where two identical objects were symmetrically placed. After 1 hour, one object was replaced by a novel object, and mice were allowed to explore freely for 5 minutes. Object exploration was defined as standing on the objects, touching the object with the nose, or sniffing the object within 1 cm from the object. A ratio of the frequency of exploring the familiar or novel object over the total exploration frequency was calculated, and used as an index for visual recognition memory.

The next assay concerns hippocampal nerve cells. Put plainly: Evaluation of viability of hippocampal nerve cells after bilateral common carotid arteries occlusion. The conditions noted are these: oral, 12 days, CA1 pyramidal cell layer, FIG. 4. In kind it is in vivo, mice. The protocol:
as §1, §2
Twelve days after bilateral occlusion of the common carotid arteries, mice were anesthetized with pentobarbital sodium, and perfused with ice-cold phosphate buffer (PBS, pH 7.4) until the blood in the body was completely removed. Immediately, mice were perfused with a fixative solution containing 4% paraformaldehyde. The brain tissues were fixed at 4° C. for 24 hours, and coronal sections having a thickness of 50 μm were prepared. Serial sections containing the hippocampus were stained with propidium iodide (PI, 5 μmol/L) dissolved in PBS and observed under a fluorescent microscope. Surviving and non-surviving nerve cells in the CA1 pyramidal cell layer of the hippocampus were counted at 1.4 to 1.8 mm posterior to bregma, and cells with PI-positive nuclei and typical morphological characteristics were defined as […]. The cell viability was calculated from a ratio to the average number of surviving nerve cells in Group 1.

Where [4] appears, read: high dose 100 mg/kg alone (Group 5 citrulline, Group 6 glutathione).
The mark [5] stands for this setting: low dose 40 mg/kg alone (Group 3 citrulline, Group 4 glutathione), vs distilled water Group 2.
The mark [6] stands for this setting: low dose 40 mg/kg alone (Group 3 citrulline, Group 4 glutathione), vs Group 2.
Where [7] appears, read: low dose 40 mg/kg alone (Group 3 citrulline, Group 4 glutathione).

Regarding `NC(=O)NCCC[C@H](N)C(=O)O` [citrulline], the “spontaneous alternation behavior rate (Alternation)” value in the assay on C57BL/6J mice [1] (setting [4]) is listed as “remarkably improved effect of memory behavior”; with C57BL/6J mice [1] (setting [5]), “Alternation cannot be improved”. For the same compound, the “time spent in the light compartment (Latency time)” value is reported as “remarkably improved effect of memory behavior” in the assay on C57BL/6J mice [2] (setting [4]) and “latency time cannot be improved” in the assay on C57BL/6J mice [2] (setting [6]). The “frequency of exploring the novel object” value is given as “remarkably improved effect of memory behavior” in the assay on C57BL/6J mice [3] (setting [4]) and “frequency of exploring the novel object cannot be increased” in the assay with C57BL/6J mice [3] (setting [7]). In addition, the “viability of hippocampal nerve cells” value in the assay with hippocampal nerve cells (setting [4]) is given as “nerve cell-protecting effect”; with hippocampal nerve cells (setting [6]), “viability of hippocampal nerve cells cannot be improved”.
For `N[C@@H](CCC(=O)N[C@@H](CS)C(=O)NCC(=O)O)C(=O)O` [glutathione], the “spontaneous alternation behavior rate (Alternation)” value is on record as “remarkably improved effect of memory behavior” with C57BL/6J mice [1] (setting [4]) and “Alternation cannot be improved” with C57BL/6J mice [1] (setting [5]). In addition, the “time spent in the light compartment (Latency time)” value is on record as “remarkably improved effect of memory behavior” with C57BL/6J mice [2] (setting [4]) and “latency time cannot be improved” with C57BL/6J mice [2] (setting [6]). Further, the “frequency of exploring the novel object” value is “remarkably improved effect of memory behavior” in the assay with C57BL/6J mice [3] (setting [4]) and “frequency of exploring the novel object cannot be increased” in the assay with C57BL/6J mice [3] (setting [7]). Further, the “viability of hippocampal nerve cells” value was “nerve cell-protecting effect” in the assay with hippocampal nerve cells (setting [4]) and “viability of hippocampal nerve cells cannot be improved” with hippocampal nerve cells (setting [6]).
